Data as given in ChEMBL document CHEMBL5625209, “Rational design and optimization of acylthioureas as novel potent influenza virus non-nucleoside polymerase inhibitors” (Eur J Med Chem, 2023).
Calls of active or inactive are those of the source. No cut-off for these calls is given here.

Key:
[1] = Tmax in Sprague-Dawley rat at 10 mg/kg, po measured up to 24 hrs by LC-MS analysis; format: ADME, organism-based; details: in vivo
[2] = AUC(0 to t) in Sprague-Dawley rat at 3 mg/kg, iv measured up to 24 hrs by LC-MS analysis; format: ADME, organism-based; details: in vivo
[3] = tested on: Influenza A virus; assay: Inhibition of Influenza A virus RdRp activity assessed as reduction in Fluc/Rluc ratio; details: dose 0.5-50 µM
[4] = Half life in Sprague-Dawley rat at 10 mg/kg, po measured up to 24 hrs by LC-MS analysis; format: ADME, organism-based; details: in vivo
[5] = AUC(0 to infinity) in Sprague-Dawley rat at 3 mg/kg, iv measured up to 24 hrs by LC-MS analysis; format: ADME, organism-based; details: Sprague-Dawley, in vivo
[6] = Half life in Sprague-Dawley rat at 3 mg/kg, iv measured up to 24 hrs by LC-MS analysis; format: ADME, organism-based; details: in vivo
[7] = Tmax in Sprague-Dawley rat at 3 mg/kg, iv measured up to 24 hrs by LC-MS analysis; format: ADME, organism-based; details: in vivo
[8] = Toxicity in BALB/c mouse assessed as clonic convulsion at 1 g/kg, IG administered 3 times per day and measured for 14 days; details: in vivo, po, 1000 mg/kg, 336 h, time 14 day
[9] = Cmax in Sprague-Dawley rat at 10 mg/kg, po measured up to 24 hrs by LC-MS analysis; format: ADME, organism-based; details: in vivo
[10] = Metabolic stability in human liver microsomes assessed as hepatic clearance preincubated for 5 mins followed by NADPH addition and measured upto 45 mins by LC-MS analysis; format: ADME, Microsome; details: time < 50 min
[11] = Metabolic stability in dog liver microsomes assessed as half life preincubated for 5 mins followed by NADPH addition and measured upto 45 mins by LC-MS analysis; format: ADME, Canis lupus familiaris, Microsome; details: time < 50 min
[12] = Metabolic stability in human liver microsomes assessed as half life preincubated for 5 mins followed by NADPH addition and measured upto 45 mins by LC-MS analysis; format: ADME, Microsome; details: time < 50 min
[13] = Metabolic stability in mouse liver microsomes assessed as half life preincubated for 5 mins followed by NADPH addition and measured upto 45 mins by LC-MS analysis; format: ADME, Microsome; details: time < 50 min
[14] = Cytotoxicity against MDCK cells by CCK-8 assay; format: toxicity, cell-based, Canis lupus familiaris; details: dog
[15] = tested on: Influenza A virus; assay: Antiviral activity against Influenza A virus H1N1 (A/Puerto Rico/8/34) infected in MDCK cells assessed as reduction in nucleocapsid protein level by Western blot analysis; format: functional, organism-based; details: dose 2-125 nM
[16] = Metabolic stability in human liver microsomes assessed as intrinsic clearance preincubated for 5 mins followed by NADPH addition and measured upto 45 mins by LC-MS analysis; format: ADME, Microsome; details: time < 50 min, read-out: CLH
[17] = Oral bioavailability in Sprague-Dawley rat at 10 mg/kg measured up to 24 hrs by LC-MS analysis; format: ADME, organism-based; details: in vivo
[18] = Toxicity in BALB/c mouse assessed as anorexia at 1 g/kg, IG administered 3 times per day and measured for 14 days; details: in vivo, po, 1000 mg/kg, 336 h, time 14 day
[19] = Clearance in Sprague-Dawley rat at 3 mg/kg, iv measured up to 24 hrs by LC-MS analysis; format: ADME, organism-based; details: in vivo
[20] = Toxicity in BALB/c mouse assessed as ruffled fur at 1 g/kg, IG administered 3 times per day and measured for 14 days; details: in vivo, po, 1000 mg/kg, 336 h, time 14 day
[21] = Toxicity in BALB/c mouse assessed as animal death at 1 g/kg, IG administered 3 times per day and measured for 14 days; details: in vivo, po, 1000 mg/kg, 336 h, time 14 day
[22] = tested on: Influenza B virus; assay: Antiviral activity against influenza B virus Victoria/2/87 infected in MDCK cells; format: functional, organism-based; details: Victoria/2/87, MDCK
[23] = AUC(0 to infinity) in Sprague-Dawley rat at 10 mg/kg, po measured up to 24 hrs by LC-MS analysis; format: ADME, organism-based; details: in vivo
[24] = Metabolic stability in mouse liver microsomes assessed as hepatic extraction ratio preincubated for 5 mins followed by NADPH addition and measured upto 45 mins by LC-MS analysis; format: ADME, Microsome; details: time < 50 min
[25] = Metabolic stability in human plasma assessed as half life measured upto 120 mins by LC-MS/MS analysis; format: ADME, cell-free
[26] = tested on: Influenza B virus; assay: Antiviral activity against influenza B virus B/Yamagata/16/88 infected in MDCK cells; format: functional, organism-based; details: B/Yamagata/16/88, MDCK
[27] = Metabolic stability in mouse liver microsomes assessed as intrinsic clearance preincubated for 5 mins followed by NADPH addition and measured upto 45 mins by LC-MS analysis; format: ADME, Microsome; details: time < 50 min, read-out: CLH
[28] = tested on: Influenza A virus; assay: Antiviral activity against Influenza A virus H1N1 (A/Puerto Rico/8/34) infected in MDCK cells assessed as reduction in nucleocapsid protein mRNA level by qRT-PCR analysis; format: functional, organism-based; details: dose 2-31.3 nM
[29] = tested on: Influenza A virus; assay: Antiviral activity against Influenza A virus H1N1 (A/Puerto Rico/8/34) infected in MDCK cells assessed as reduction in NP protein level at 1 uM treated at 4 hrs post infection by Western blot analysis; format: functional, organism-based
[30] = Metabolic stability in human liver microsomes assessed as hepatic extraction ratio preincubated for 5 mins followed by NADPH addition and measured upto 45 mins by LC-MS analysis; format: ADME, Microsome; details: time < 50 min
[31] = Metabolic stability in human plasma assessed as remaining compound measured upto 120 mins by LC-MS/MS analysis; format: ADME, cell-free; details: read-out: Stability
[32] = Toxicity in BALB/c mouse assessed as body weight loss at 1 g/kg, IG administered 3 times per day; details: in vivo, po, 1000 mg/kg
[33] = tested on: Influenza A virus; assay: Antiviral activity against Influenza A virus H1N1 (A/Puerto Rico/8/34) infected in MDCK cells assessed as reduction in NP protein level at 1 uM in presence of rNTP by Western blot analysis; format: functional, organism-based
[34] = tested on: Influenza A virus; assay: Antiviral activity against Influenza A virus H1N1 (A/Puerto Rico/8/34) infected in MDCK cells assessed as reduction in NP protein level at 1 uM in presence of 125 uM rNTP by Western blot analysis; format: functional, organism-based
[35] = tested on: Influenza A virus; assay: Antiviral activity against Influenza A virus H1N1 (A/Puerto Rico/8/34) infected in MDCK cells assessed as reduction in NP viral RNA level at 1 uM treated at 4 hrs post infection by qRT-PCR analysis; format: functional, organism-based
[36] = Toxicity in BALB/c mouse assessed as lethargy at 1 g/kg, IG administered 3 times per day and measured for 14 days; details: in vivo, po, 1000 mg/kg, 336 h, time 14 day
[37] = tested on: Influenza A virus; assay: Antiviral activity against Influenza A virus H1N1 (A/Puerto Rico/8/34) infected in MDCK cells assessed as reduction in NP protein level at 1 uM in presence of rCTP by Western blot analysis; format: functional, organism-based
[38] = Metabolic stability in mouse liver microsomes assessed as hepatic clearance preincubated for 5 mins followed by NADPH addition and measured upto 45 mins by LC-MS analysis; format: ADME, Microsome; details: time < 50 min
[39] = tested on: Influenza A virus; assay: Antiviral activity against Influenza A virus H1N1 (A/Puerto Rico/8/34) infected in MDCK cells assessed as reduction in viral proliferation at 20 nM pre-infected with virus for 1 hr followed by compound addition and measured after 48 hrs by crystal violet staining based plaque formation assay; format: functional, organism-based
[40] = tested on: Influenza A virus; assay: Antiviral activity against Influenza A virus H1N1 (A/Puerto Rico/8/34) infected in MDCK cells assessed as reduction in NP protein level at 1 uM in presence of rUTP by Western blot analysis; format: functional, organism-based
[41] = Metabolic stability in dog liver microsomes assessed as intrinsic clearance preincubated for 5 mins followed by NADPH addition and measured upto 45 mins by LC-MS analysis; format: ADME, Canis lupus familiaris, Microsome; details: time < 50 min, read-out: CLH
[42] = tested on: Influenza A virus; assay: Antiviral activity against Influenza A virus H1N1 (A/Puerto Rico/8/34) infected in MDCK cells assessed as reduction in virus-induced cytopathic effect incubated for 48 hrs by CCK8 assay; format: functional, organism-based
[43] = Cmax in Sprague-Dawley rat at 3 mg/kg, iv measured up to 24 hrs by LC-MS analysis; format: ADME, organism-based; details: in vivo
[44] = AUC(0 to t) in Sprague-Dawley rat at 10 mg/kg, po measured up to 24 hrs by LC-MS analysis; format: ADME, organism-based; details: in vivo
[45] = Selectivity index, ratio of CC50 for MDCK cells to EC50 for antiviral activity against Influenza A virus H1N1 (A/Puerto Rico/8/34) infected in MDCK cells; format: toxicity, cell-based; details: dog, read-out: Ratio CC50/EC50
[46] = Metabolic stability in dog liver microsomes assessed as hepatic extraction ratio preincubated for 5 mins followed by NADPH addition and measured upto 45 mins by LC-MS analysis; format: ADME, Canis lupus familiaris, Microsome; details: time < 50 min
[47] = Metabolic stability in dog liver microsomes assessed as hepatic clearance preincubated for 5 mins followed by NADPH addition and measured upto 45 mins by LC-MS analysis; format: ADME, Canis lupus familiaris, Microsome; details: time < 50 min
[48] = Toxicity in BALB/c mouse assessed as body weight loss at 1 g/kg, IG administered 3 times per day and measured on day 4 to 9; details: in vivo, po, 1000 mg/kg, time 4-9 day
[49] = tested on: Influenza A virus; assay: Antiviral activity against Influenza A virus H1N1 (A/Puerto Rico/8/34) infected in BALB/c mouse at 100 mg/kg/day, po administered twice daily for 7 days and measured after 14 days; format: functional; details: time 14 day

CC(C)(C)c1ccc(C(=O)NC(=S)Nc2ccc(NC(=O)c3ccc(C(C)(C)C)cc3)cc2)cc1
Tmax [1]: 4 h | AUC(0-t) at 24 h [2]: 21900 ng·h/mL | inhibition [3]: Dose-Dependent Effect | half-life [4]: 196 min | AUC(0-inf) [5]: 21900 ng·h/mL | half-life [6]: 221 min | Tmax [7]: 4.8 min | Activity [8]: Non-Toxic | Cmax [9]: 1180 ng/mL | CLhep predicted [10]: 10.8 mL/min/kg | half-life [11]: 62.7 min | half-life [12]: 76.7 min | half-life [13]: 53.5 min | CC50 [14]: > 100 µM | Activity [15]: Dose-Dependent Effect | CLint scaled [16]: 22.7 mL/min/kg | bioavailability [17]: 7.38% | Activity [18]: Non-Toxic | clearance [19]: 2.29 mL/min/kg | Activity [20]: Non-Toxic | Activity [21]: Non-Toxic | EC50 [22]: 40 nM | AUC(0-inf) [23]: 5400 ng·h/mL | hepatic extraction ratio at 0.75 h [24]: 53.1% | half-life [25]: 192 min | EC50 [26]: 50 nM | CLint scaled [27]: 102 mL/min/kg | Activity [28]: Dose-Dependent Effect | Activity [29]: Active | hepatic extraction ratio at 0.75 h [30]: 52.3% | remaining at 2 h [31]: 64% | Activity [32]: Toxic | Activity [33]: inactive | Activity [34]: inactive | Activity [35]: Active | Activity [36]: Non-Toxic | Activity [37]: inactive | CLhep predicted [38]: 47.8 mL/min/kg | Activity [39]: Active | Activity [40]: inactive | CLint scaled [41]: 55.1 mL/min/kg | EC50 [42]: 1 nM | Cmax [43]: 41900 ng/mL | AUC(0-t) at 24 h [44]: 5420 ng·h/mL | selectivity ratio [45]: > 120000 | hepatic extraction ratio at 0.75 h [46]: 64.1% | CLhep predicted [47]: 19.8 mL/min/kg | Activity [48]: Non-Toxic | Activity [49]: 50%
